In one assay the target is Neprilysin (Homo sapiens, UniProt P08473). Description: Compound was evaluated for inhibition of recombinant human neprilysin(NEP).
Assay [1] addresses T1, Angiotensin-converting enzyme (Rattus norvegicus, UniProt P47820).
T1 sequence (P47820 whole entry): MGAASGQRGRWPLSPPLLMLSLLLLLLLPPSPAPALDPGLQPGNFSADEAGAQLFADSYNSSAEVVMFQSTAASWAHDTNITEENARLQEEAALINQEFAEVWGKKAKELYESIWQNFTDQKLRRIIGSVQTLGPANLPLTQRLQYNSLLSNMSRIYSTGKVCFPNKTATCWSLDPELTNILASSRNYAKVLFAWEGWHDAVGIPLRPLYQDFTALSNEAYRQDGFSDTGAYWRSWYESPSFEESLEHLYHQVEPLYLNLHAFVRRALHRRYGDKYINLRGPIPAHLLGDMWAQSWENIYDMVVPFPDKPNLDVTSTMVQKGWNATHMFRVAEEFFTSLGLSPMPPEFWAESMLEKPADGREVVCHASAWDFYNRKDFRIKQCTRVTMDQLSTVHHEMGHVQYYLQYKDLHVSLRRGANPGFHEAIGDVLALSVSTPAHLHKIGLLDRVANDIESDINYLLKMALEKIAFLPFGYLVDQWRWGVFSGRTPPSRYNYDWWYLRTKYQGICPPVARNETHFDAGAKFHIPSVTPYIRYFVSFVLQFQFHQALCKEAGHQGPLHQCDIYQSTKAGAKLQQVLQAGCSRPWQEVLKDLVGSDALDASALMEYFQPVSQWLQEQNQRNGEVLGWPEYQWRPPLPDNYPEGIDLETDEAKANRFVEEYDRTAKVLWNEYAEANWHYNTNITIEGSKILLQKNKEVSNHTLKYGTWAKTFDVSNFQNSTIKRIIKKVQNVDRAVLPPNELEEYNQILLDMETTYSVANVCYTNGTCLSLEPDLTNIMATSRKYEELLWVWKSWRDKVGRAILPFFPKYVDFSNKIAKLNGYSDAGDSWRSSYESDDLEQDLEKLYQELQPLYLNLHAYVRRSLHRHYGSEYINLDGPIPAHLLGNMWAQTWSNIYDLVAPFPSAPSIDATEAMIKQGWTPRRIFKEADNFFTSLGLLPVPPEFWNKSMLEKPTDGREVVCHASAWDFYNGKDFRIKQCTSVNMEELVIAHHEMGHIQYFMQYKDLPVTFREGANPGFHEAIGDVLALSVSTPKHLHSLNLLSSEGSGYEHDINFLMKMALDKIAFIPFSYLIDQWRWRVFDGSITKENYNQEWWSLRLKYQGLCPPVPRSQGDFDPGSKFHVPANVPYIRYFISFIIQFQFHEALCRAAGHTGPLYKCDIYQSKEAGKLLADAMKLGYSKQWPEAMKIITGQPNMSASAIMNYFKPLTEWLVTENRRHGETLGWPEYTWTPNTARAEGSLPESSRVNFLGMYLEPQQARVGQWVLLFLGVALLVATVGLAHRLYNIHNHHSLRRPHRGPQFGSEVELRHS
Description: Compound was measured for the inhibition of Angiotensin I converting enzyme.

We go through four compounds from ChEMBL document CHEMBL1129196, “Studies on the structural feature of S'1 subsite of neprilysin (EC.3.4.24.11): Stereochemical requirement for the enzyme-inhibitor docking process” (Bioorg Med Chem Lett, 1996).

SMILES strings stand for the structures. Some results are limits rather than exact numbers.

Sequence of Neprilysin (P08473 whole entry): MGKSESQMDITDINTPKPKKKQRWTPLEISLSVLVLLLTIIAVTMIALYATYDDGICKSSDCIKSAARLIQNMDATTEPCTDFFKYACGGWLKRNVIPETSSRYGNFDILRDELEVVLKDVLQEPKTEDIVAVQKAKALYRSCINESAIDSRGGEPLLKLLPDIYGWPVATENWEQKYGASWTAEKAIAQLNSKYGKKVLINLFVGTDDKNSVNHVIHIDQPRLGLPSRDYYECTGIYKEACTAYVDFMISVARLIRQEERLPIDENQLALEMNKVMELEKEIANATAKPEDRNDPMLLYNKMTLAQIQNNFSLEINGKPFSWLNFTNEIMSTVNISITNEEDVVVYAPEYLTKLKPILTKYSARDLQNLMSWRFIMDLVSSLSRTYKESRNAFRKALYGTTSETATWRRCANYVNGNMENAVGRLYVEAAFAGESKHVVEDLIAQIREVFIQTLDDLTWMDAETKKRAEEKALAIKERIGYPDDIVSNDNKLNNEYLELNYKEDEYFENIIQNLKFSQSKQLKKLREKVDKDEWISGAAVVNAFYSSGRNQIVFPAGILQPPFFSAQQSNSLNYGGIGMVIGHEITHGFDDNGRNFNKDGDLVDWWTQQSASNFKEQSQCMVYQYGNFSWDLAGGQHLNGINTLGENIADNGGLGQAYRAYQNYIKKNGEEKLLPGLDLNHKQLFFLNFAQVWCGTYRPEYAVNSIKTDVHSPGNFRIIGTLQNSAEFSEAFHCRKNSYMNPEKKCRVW

`O=C(O)CNC(=O)C(CS)(Cc1ccccc1)Cc1ccccc1`: at Neprilysin, the Ki (in general, a dissociation constant, usually derived from enzyme kinetics or from competition with a known ligand) was greater than 100 nM.
With `O=C(O)CNC(=O)/C(=C/c1ccccc1)CS`, the Ki at Neprilysin was 408 nM.
`O=C(O)CNC(=O)/C(=C\c1ccccc1)CS`: the inhibition constant Ki at Neprilysin was found to be 4.9 nM; in assay [1], 380 nM.
Turning to `O=C(O)CNC(=O)C1(CS)Cc2ccccc2C1`, on Neprilysin, the inhibitory constant (Ki) stood at 162 nM.
